Several values for one entry are separate records, joined by “and”; a condition that tells them apart may be missing. Identical values can stand only once.
System: 695427-040-R-J1-PDC complex spheroids, viability percent T/C
Assay: Anticancer human tumor 695427-040-R-J1-PDC patient-derived colon adenocarcinoma cell line growth inhibition [GQUAD]
Conditions: for viability, T/C: stronger effect = lower value
Description: DNA G-quadruplex Stabilizer Agents in Combinations in Complex Spheroids
A high-throughput screen of multi-cell type tumor spheroids was designed to identify active combinations of DNA G-quadruplex stabilizer agents and targeted small molecules. Complex spheroids include a stromal component modeled by human endothelial cells (HUVEC) and fibroblasts modeled by human mesenchymal stem cells (MSCs). The concentration ranges selected for each drug and investigational agent were based upon clinically achievable concentrations if the clinical Cmax of the agent was known.
Compounds. The drugs and investigational agents: pidnarulex (CX-5461; NSC782164), APTO-253 (NSC789042), BRACO-19 (NSC847499), peposertib (NSC802822), ceralasertib (NSC780249), elimusertib (NSC800525), camonsertib (NSC841442), AZD-1390 (NSC803789), olaparib (NSC753686), talazoparib (NSC767125), ART-558 (NSC835418), sotorasib (NSC818433), MRTX-1133 (NSC836407), SN-38 (NSC673596), topotecan (NSC609699), etoposide (NSC141540), doxorubicin (NSC123127), gemcitabine (NSC613327), 5-fluorouracil (NSC19893), paclitaxel (NSC125973), vemurafenib (NSC761431), panobinostat (NSC761190), R-306465 (JNJ-16241199; NSC773264), adavosertib (NSC754352), TP-3654 (NSC805149), carboplatin (NSC241240), KSQ-4279 (NSC840948), and staurosporine (NSC755774) were obtained from the National Cancer Institute (NCI) Developmental Therapeutics Program Chemical Repository (34). The FDA-approved anticancer drug set is available from the NCI Developmental Therapeutics Program. […] The stock solutions were prepared in dimethyl sulfoxide (DMSO, Sigma-Aldrich, St. Louis, MO, cat. D2650) at 800-fold the tested concentration and stored at -70 degrees C prior to their use. All drugs and investigational agents were tested over a range starting from a high concentration at or near the clinical Cmax and decreasing in half-log increments. If the clinical Cmax for an agent had not been determined, the highest concentration tested was 10 microM.
2.3 Cell Culture. All cells were maintained in an incubator at 37 degrees C and 5% CO2 with 95% humidity. The PDC lines were cultured according to standard operating procedures established by the NCI PDMR. All PDCs were thawed and cultured in Matrigel-coated flasks prepared with a working solution of 1X Ham's F-12 nutrient mix, without supplementation (Invitrogen, cat. 11765054), 100 U/mL penicillin-streptomycin (Invitrogen, cat. 15140122), and 2.5% Matrigel (Corning Inc., cat. 354248) for the first three passages. The 857933-349-R-J2-PDC line was cultured in 6C/Colon 1B media, which includes advanced DMEM/F-12 (Thermo Fisher Scientific, cat. 12634028), 10 mM HEPES (Thermo Fisher Scientific, cat. 15630080), 1X GlutaMAX supplement (Thermo Fisher Scientific, cat. 35050061), 0.1 mg/mL primocin (InvivoGen, cat. ant-pm-2), 10% defined fetal bovine serum, heat inactivated (HyClone Laboratories Inc., cat. SH30070.03HI), 50% L-WRN conditioned media (ATCC, cat. CRL-3276), 1.25 mM N-Acetyl-L-cysteine (Sigma-Aldrich, cat. A9165), 10 mM nicotinamide (Sigma-Aldrich, cat. N0636), 1X B-27 supplement (Thermo Fisher Scientific, cat. 17504044), 1X N-2 supplement (Thermo Fisher Scientific, cat. 17502048), 10 microM Y-27632 dihydrochloride (Tocris Bioscience, cat. 1254), and 50 ng/mL human EGF recombinant protein (Thermo Fisher Scientific, cat. PHG0311). The 485176-168-R4-J1-PDC line was cultured in Panc media, which includes all 6C/Colon 1B media components plus 100 ng/mL human FGF-10 (Thermo Fisher Scientific, cat. 100-26), 500 nM SB-431542 (Selleckchem, cat. S1067), and gastrin (Tocris, cat. 3006).
[…]
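Note: spheroids exposed to compounds for seven days before readout.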

IC50 (curve of compound) | IC50 (compound alone, run of 04/22/2024) | SMILES | viability, T/C (compound 0.0316 µM) | viability, T/C (compound 0.1 µM) | viability, T/C (compound 0.316 µM) | viability, T/C (compound 1 µM) | viability, T/C (compound 3.16 µM) | viability, T/C (compound 10 µM) | viability, T/C (compound 0.000999 µM) | viability, T/C (compound 0.00316 µM) | viability, T/C (compound 0.00999 µM) | viability, T/C (compound 0.0999 µM)
> 10 µM and 1.76 µM |  | C#Cc1c(F)ccc2cc(O)cc(-c3ncc4c(N5CC6CCC(C5)N6)nc(OCC56CCCN5CC(F)C6)nc4c3F)c12 (configuration not stated) | 95.2% and 101% and 104% | 102% and 103% and 111% | 95.2% and 99.6% and 102% | 94.3% and 81.3% and 97.2% | 56.7% and 17.5% and 103% | 59% and 15.6% and 82.1% |  |  |  | 
> 10 µM |  | C=CC(=O)N1CCN(c2nc(=O)n(-c3c(C)ccnc3C(C)C)c3nc(-c4c(O)cccc4F)c(F)cc23)C(C)C1 (configuration not stated) | 97.2% and 103% and 104% | 93.4% and 97.8% and 82.5% | 103% and 101% and 102% | 98.8% and 105% and 85.6% | 92.6% and 110% and 68.9% | 90.5% and 106% and 97.2% |  |  |  | 
> 10 µM and 3.18 µM |  | C=CCn1c(=O)c2cnc(Nc3ccc(N4CCN(C)CC4)cc3)nc2n1-c1cccc(C(C)(C)O)n1 | 102% and 100% and 86.2% | 105% and 85.8% and 89.5% | 107% and 86.4% and 87.7% | 105% and 80.5% and 61.6% | 107% and 68.6% and 54.9% | 66.5% and 54.9% and 35.4% |  |  |  | 
 |  | CC(=O)O[C@H]1C(=O)[C@@]2(C)[C@H]([C@H](OC(=O)c3ccccc3)[C@]3(O)C[C@H](OC(=O)[C@H](O)[C@@H](NC(=O)c4ccccc4)c4ccccc4)C(C)=C1C3(C)C)[C@]1(OC(C)=O)CO[C@@H]1C[C@@H]2O | 92.5% and 97.5% and 84.8% | 90.5% and 92.7% and 88.8% | 72.9% and 89.3% and 82.4% |  |  |  |  |  |  | 
> 10 µM and 1.72 µM and 1.44 µM |  | CC(C)(O)C1CCC(Nc2ccc3ncc(-c4cccc(C(F)(F)F)c4)n3n2)CC1 (configuration not stated) | 109% and 99.2% and 78.5% | 101% and 97.4% and 88.4% | 111% and 94.6% and 101% | 105% and 80.1% and 66.9% | 97.6% and 16% and 12.7% | 87.6% and 15.5% and 13.5% |  |  |  | 
> 10 µM |  | CC(C)n1c(=O)n(C)c2cnc3cc(F)c(-c4ccc(OCCCN5CCCCC5)nc4)cc3c21 | 97.4% and 115% and 95.5% | 102% and 97.8% and 101% | 110% and 102% and 97.8% | 118% and 115% and 110% | 74% and 109% and 84.6% | 57.9% and 69.9% and 56.8% |  |  |  | 
0.318 µM and 0.979 µM and 0.181 µM |  | CC1COCCN1c1cc(-c2ccnn2C)c2ccnc(-c3ccn[nH]3)c2n1 (configuration not stated) | 88.2% and 92.1% and 81.5% | 71.7% and 79.9% and 54.3% | 50.6% and 61.6% and 45.6% | 34.4% and 49.4% and 35.4% | 27.7% and 46.1% and 23% | 26.8% and 40.4% and 24.8% |  |  |  | 
0.431 µM and 0.993 µM and 2.09 µM |  | CC1COCCN1c1cc(C2(O)CC3CCC(C2)O3)c2cnn(-c3ccn[nH]3)c2n1 (configuration not stated) | 79.3% and 91.3% and 95% | 66.4% and 78.3% and 88.3% | 54.6% and 68.4% and 73.6% | 41.1% and 52% and 56.7% | 23.6% and 30.7% and 47.5% | 20% and 23.6% and 36.8% |  |  |  | 
> 10 µM |  | CC1COCCN1c1cc(C2(S(C)(=N)=O)CC2)nc(-c2ccnc3[nH]ccc23)n1 (configuration not stated) | 98.2% and 95.8% and 104% | 80.6% and 102% and 90.9% | 82% and 94.1% and 92.3% | 85.7% and 94.6% and 87.3% | 59.1% and 88.3% and 68.5% | 55.5% and 73.5% and 54.2% |  |  |  | 
> 10 µM and 8.3 µM |  | CCCS(=O)(=O)Nc1ccc(F)c(C(=O)c2c[nH]c3ncc(-c4ccc(Cl)cc4)cc23)c1F | 96% and 108% and 99.2% | 92.3% and 101% and 87.5% | 90.3% and 110% and 114% | 79.9% and 102% and 101% | 65.4% and 116% and 103% | 58.2% and 67.2% and 40.1% |  |  |  | 
> 0.316 µM |  | CC[C@@]1(O)C(=O)OCc2c1cc1n(c2=O)Cc2cc3c(CN(C)C)c(O)ccc3nc2-1 | 93.2% and 102% and 89.2% |  | 82.7% and 90.3% and 80.3% |  |  |  | 93.2% and 113% and 101% | 97.2% and 103% and 94.8% | 109% and 96.7% and 103% | 81.3% and 103% and 88.3%
0.175 µM and > 0.316 µM and 0.0507 µM |  | CCc1c2c(nc3ccc(O)cc13)-c1cc3c(c(=O)n1C2)COC(=O)[C@]3(O)CC | 73.2% and 80.9% and 61% |  | 41.9% and 54.7% and 34.1% |  |  |  | 94.6% and 102% and 82.8% | 74.4% and 96.6% and 88.9% | 82.1% and 85% and 83.3% | 54.9% and 68.1% and 33.5%
 | > 10 µM | CN(C)c1ccc(Nc2c3ccc(NC(=O)CCN4CCCC4)cc3nc3cc(NC(=O)CCN4CCCC4)ccc23)cc1 | 104% [middle of 12 runs] | 102% [middle of 12 runs] | 104% [middle of 12 runs] | 99.1% [middle of 12 runs] | 103% [middle of 12 runs] | 92.2% [middle of 12 runs] |  |  |  | 
